# Measured values taken from patent publication US20220186188A1, “Method for Obtaining Pancreatic Progenitor Cells and Pancreatic Islet Beta Cells By Means of Differentiation of Human Pluripotent Stem Cells” (Asia Regenerative Medicine, Ltd., priority 2019, published 2022).
# Test system: pancreatic progenitor cells differentiated from human embryonic stem cells
# Test: Flow cytometry detection of PDX1 in the pancreatic progenitor cell stage (human embryonic stem cells)
# Format: cell-based
# Details: 2 μM inhibitor in pancreatic progenitor cell medium, 5 days, compared with control group without WNT inhibitor
# Procedure: a pancreatic progenitor cell medium was prepared, the medium in step 1) was replaced with the pancreatic progenitor cell medium, and the cells were cultured in a carbon dioxide incubator at 37 degrees Celsius for 5 days, during which the medium was replaced every day, wherein the composition of the pancreatic progenitor cell medium was: with an MCDB131 medium as a basic medium, and the following components at the working concentrations were further included: 0.5% of bovine serum albumin (BSA), 1.5 g/L of sodium bicarbonate, 1×glutamine (GlutaMAX), 10 mM glucose, […], 1×insulin-transferrin-selenium-ethanolamine additive (ITS-X), 50 ng/ml of fibroblast growth factor 7 (KGF), 0.5 μM SANT1 (with smo as an inhibitor target), 100 nM retinoic acid (TTNPB), 500 nM phorbol 12,13-dibutyrate (PDBu), 2 μM ALK inhibitor (K02288), and 2 μM WNT signaling pathway inhibitor XAV-939 (not added in a control group), with the concentrations all being final concentrations. […]
compound,measurement,value
Oc1nc(-c2ccc(C(F)(F)F)cc2)nc2c1CSCC2 [XAV-939],PDX1-positive pancreatic progenitor cells (flow cytometry),significantly increased
